Patent US20190298708A1, “METHODS OF TREATING SUBJECTS WITH AN ELEVATED NEUROFILAMENT LIGHT CHAIN LEVEL” (Coherus Biosciences, Inc., priority 2018, published 2019)

Assays:
[1] = test system: relapsing-remitting multiple sclerosis (RRMS) patients; assay: Correlation of NFL concentration with CE and T2 lesions and EDSS; format: in vivo, human; conditions: after six months of treatment, all groups combined
From the text: Serum Nfl levels were investigated in longitudinal blood samples. The aims of this study include: • to explore the predictive value of blood NFL concentrations in patients treated with CHS-131 (also known as INT-131), • to determine the kinetics of the response to CHS-131, • to analyze NFL as a marker for the effectiveness of CHS-131 in relapsing-remitting multiple sclerosis (RRMS) patients, • to assess the value of NFL concentrations in comparing the effectiveness of CHS-131 with the effectiveness of placebo, • to correlate blood NFL with radiological and clinical outcome parameters (such as magnetic resonance imaging (MRI) (Gd+ lesion counts, T2 lesion volume), annualized relapse rate (ARR), brain atrophy and correlation with expanded disability status scale (EDSS), • to examine the prognostic value of NFL concentrations by stratification of patients related to disease activity, • to determine the risk of relapse or risk of disease progression, and • to evaluate NFL concentrations as a retreatment predictive biomarker. The correlation between NFL concentration and CE and T2 lesions was evaluated after six months of treatment with CHS-131 (all groups combined). […] The correlation between NFL concentration and EDSS was evaluated after six months of treatment with CHS-131 (all groups combined). […] Increased EDSS indicates increased disability, therefore lowering EDSS is considered effective treatment of multiple sclerosis.

[2] = test system: neurofilament light chain (NFL); assay: Blood NFL measurement by Simoa assay in RRMS patients given CHS-131; format: in vivo, human
Method: Capture monoclonal antibody (mAB) 47: 3 is buffer exchanged and diluted to 0.3 mg/mL 4×10^6 paramagnetic beads (Quanterix Corporation) are buffer exchanged and activated using 0.5 mg/mL 1-ethyl-3-(3-dimetylaminopropyl) carbodiimide (Quanterix), followed by a 30-minute incubation at room temperature (HulaMixer, Thermo Fischer Scientific). The diluted capture mAB 47:3 is conjugated with the washed and activated paramagnetic beads for a 2-hour incubation at room temperature on a mixer. After the incubation, the beads are washed three times using a magnetic separator and blocked. Next, the conjugated beads are suspended and stored at 4° C.
The Simoa assay is run on a Simoa HD-1 instrument (Quanterix) using a two-step Assay Neat 20 protocol. Briefly, 100 μL of calibrator/sample in Tris-buffered saline (TBS), 0.1% Tween 20, 1% milk powder, 400 μg/mL Heteroblock (Omega Biologicals), 25 μL conjugated beads in TBS, 0.1% Tween 20, 1% milk powder, 300 μg/mL Heteroblock, and 20 μL of mAB 2:1 (0.1 μg/mL in TBS, 0.1% Tween 20, 1% milk powder, 300 μg/mL Heteroblock) are incubated for 35 minutes 15 seconds (47 cadences with 1 cadence is 45 seconds). Next, the mixture is washed. Then, 100 μL of streptavidin-conjugated […] (150 pM; Quanterix) is added, followed by a 5 minutes 15 second (7-cadence) incubation and wash. The mixture will then be placed on a Simoa HD-1 instrument. Prior to reading, 25 μL Resorufin (3-D-galactopyranoside (Quanterix) is added. The calibrator curve is constructed using the standard from the NFL ELISA (NF-light, UmanDiagnostics). Samples and calibrators are measured in duplicates.
Serum Nfl levels were investigated in longitudinal blood samples. The aims of this study include: • to explore the predictive value of blood NFL concentrations in patients treated with CHS-131 (also known as INT-131), • to determine the kinetics of the response to CHS-131, • to analyze NFL as a marker for the effectiveness of CHS-131 in relapsing-remitting multiple sclerosis (RRMS) patients, • to assess the value of NFL concentrations in comparing the effectiveness of CHS-131 with the effectiveness of placebo, • to correlate blood NFL with radiological and clinical outcome parameters (such as magnetic resonance imaging (MRI) (Gd+ lesion counts, T2 lesion volume), annualized relapse rate (ARR), brain atrophy and correlation with expanded disability status scale (EDSS), • to examine the prognostic value of NFL concentrations by stratification of patients related to disease activity, • to determine the risk of relapse or risk of disease progression, and • to evaluate NFL concentrations as a retreatment predictive biomarker.
All patients receiving CHS-131 were orally adminisntered 1 mg or 3 mg CHS-131 daily. All control patients were orally administered a placebo tablet once a day. All patients enrolled in the study were treatment-naïve RRMS for <3 years.
The human plasma samples used for the analysis were coded and are not individually identifiable because neither the investigator nor any other individuals associated with the investigation or the sponsor can link the specimen to the subject from whom the specimen was collected, either directly or indirectly through coding systems.
The concentration of NFL […] in subject administered placebo, 1 mg daily CHS-131, and 3 mg daily CHS-131 are reported in Tables 1, 2, and 3, respectively.

[3] = 1 mg daily CHS-131 oral, Wk0, RRMS patients
[4] = 1 mg daily CHS-131 oral, Wk12, RRMS patients
[5] = 1 mg daily CHS-131 oral, Wk24, RRMS patients
[6] = 1 mg daily CHS-131 oral, Wk48, RRMS patients
[7] = 3 mg daily CHS-131 oral, Wk0, RRMS patients
[8] = 3 mg daily CHS-131 oral, Wk12, RRMS patients
[9] = 3 mg daily CHS-131 oral, Wk24, RRMS patients
[10] = 3 mg daily CHS-131 oral, Wk48, RRMS patients

## O=S(=O)(Nc1cc(Cl)c(Oc2cnc3ccccc3c2)c(Cl)c1)c1ccc(Cl)cc1Cl [CHS-131]
[1]; FIG. 1
  new CE lesions in subjects with lower average levels of NFL: fewer new CE lesions
[1]; FIG. 2
  new or enlarging T2 lesions in subjects with lower average levels of NFL: fewer new or enlarging T2 lesions
[1]; FIG. 3
  EDSS in subjects with lower levels of NFL (trend): lower EDSS
[2]; [3]
  concentration of NFL, Max: 29 pg/mL
  concentration of NFL, Mean: 20.8 pg/mL
  concentration of NFL, Median: 19.4 pg/mL
  concentration of NFL, Min: 13.3 pg/mL
  concentration of NFL, Q1: 19.3 pg/mL
  concentration of NFL, Q3: 22.8 pg/mL
[2]; [4]
  concentration of NFL, Max: 160 pg/mL
  concentration of NFL, Mean: 27.6 pg/mL
  concentration of NFL, Median: 17.9 pg/mL
  concentration of NFL, Min: 2.1 pg/mL
  concentration of NFL, Q1: 11.7 pg/mL
  concentration of NFL, Q3: 32.2 pg/mL
[2]; [5]
  concentration of NFL, Max: 65.5 pg/mL
  concentration of NFL, Mean: 22.3 pg/mL
  concentration of NFL, Median: 17 pg/mL
  concentration of NFL, Min: 3.2 pg/mL
  concentration of NFL, Q1: 11.8 pg/mL
  concentration of NFL, Q3: 31.5 pg/mL
[2]; [6]
  concentration of NFL, Max: 340 pg/mL
  concentration of NFL, Mean: 27.6 pg/mL
  concentration of NFL, Median: 17.5 pg/mL
  concentration of NFL, Min: 2.6 pg/mL
  concentration of NFL, Q1: 10.1 pg/mL
  concentration of NFL, Q3: 24.2 pg/mL
[2]; [7]
  concentration of NFL, Max: 73.7 pg/mL
  concentration of NFL, Mean: 29.9 pg/mL
  concentration of NFL, Median: 19.6 pg/mL
  concentration of NFL, Min: 11.7 pg/mL
  concentration of NFL, Q1: 11.8 pg/mL
  concentration of NFL, Q3: 48.1 pg/mL
[2]; [8]
  concentration of NFL, Max: 117 pg/mL
  concentration of NFL, Mean: 23.2 pg/mL
  concentration of NFL, Median: 16.4 pg/mL
  concentration of NFL, Min: 4.9 pg/mL
  concentration of NFL, Q1: 12.2 pg/mL
  concentration of NFL, Q3: 28.1 pg/mL
[2]; [9]
  concentration of NFL, Max: 74.9 pg/mL
  concentration of NFL, Mean: 20.4 pg/mL
  concentration of NFL, Median: 15.9 pg/mL
  concentration of NFL, Min: 5.8 pg/mL
  concentration of NFL, Q1: 10.4 pg/mL
  concentration of NFL, Q3: 26.6 pg/mL
[2]; [10]
  concentration of NFL, Max: 119 pg/mL
  concentration of NFL, Mean: 19.3 pg/mL
  concentration of NFL, Median: 14.3 pg/mL
  concentration of NFL, Min: 4.9 pg/mL
  concentration of NFL, Q1: 9 pg/mL
  concentration of NFL, Q3: 20.4 pg/mL
